Reference: the supplement of paper PMC8671470

What was measured:
Conditions in all cases: 72 h
KG-1 [1] = system: KG-1
How it was run: (§1)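 Each of fifteen myeloid leukaemia cell lines was seeded in RPMI 1640 at a density titrated to its linear growth range. The cells were incubated for 72 h at 37 °C and 5% CO2 with compounds at five tenfold doses from 1 to 10,000 nM, in duplicate. After ATP luminescence was normalised to vehicle and to a positive control at 10 µM, four-parameter log-logistic curves were fitted. These curves gave the IC50.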

HEL [2] = system: HEL
How it was run: as §1

KCL-22 [3] = system: KCL-22
How it was run: as §1

ML-2 [4] = system: ML-2
How it was run: as §1

LAMA-84 [5] = system: LAMA-84
How it was run: as §1

MV4-11 [6] = system: MV4-11
How it was run: as §1

HL-60 [7] = system: HL-60
How it was run: as §1

K-562 [8] = system: K-562
How it was run: as §1

MOLM-13 [9] = system: MOLM-13
How it was run: as §1

THP-1 = system: THP-1
How it was run: as §1

KU-812 = system: KU-812
How it was run: as §1

Mono-Mac-6 = system: Mono-Mac-6
How it was run: as §1

SHI-1 [10] = system: SHI-1
How it was run: as §1

BV-173 [11] = system: BV-173
How it was run: as §1

NOMO-1 = system: NOMO-1
How it was run: as §1

KG-1 [12] = assay: cell viability (% survival relative to DMSO control, bortezomib = 0%); higher = less cytotoxic
How it was run: (§2)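 Fifteen myeloid leukaemia cell lines (10 AML, 5 CML) were seeded at a density titrated to the linear growth range into 384-well plates pre-printed with compounds at 1, 10, 100, 1000 or 10000 nM in duplicate. Plates were incubated for 72 h at 37 °C with 5% CO2. Viability was then read by CellTiter-Glo luminescence. Each value is percent survival averaged over the duplicates, with vehicle set to 100% and a 10 µM positive control to 0%.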

HEL [13] = assay: as above
How it was run: as §2

KCL-22 [14] = assay: as above
How it was run: as §2

ML-2 [15] = assay: as above
How it was run: as §2

LAMA-84 [16] = assay: as above
How it was run: as §2

MV4-11 [17] = assay: as above
How it was run: as §2

HL-60 [18] = assay: as above
How it was run: as §2

K-562 [19] = assay: as above
How it was run: as §2

MOLM-13 [20] = assay: as above
How it was run: as §2

SHI-1 [21] = assay: as above
How it was run: as §2

BV-173 [22] = assay: as above
How it was run: as §2

HL-60 [23] = assay: area under dose-response curve (viability, 1 nM-10 uM) (fraction (0-1)); higher = more sensitive
How it was run: (§3)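 Area under the curve, where listed, was derived from four-parameter log-logistic fits with drc and PharmacoGx. These fits used CellTiter-Glo viability from HL-60 cells in RPMI 1640 with 10% FBS, normalised to DMSO wells and wells holding 10 μM proteasome inhibitor. The full library was rescreened on 384-well plates in duplicate at five tenfold concentrations, 1–10,000 nM, with DMSO or 100 nM of one of three metabolic inhibitors, for 72 h at 37 °C, 5% CO2.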

HL-60 [24] = assay: cell viability (% survival relative to DMSO control); higher = less cytotoxic
How it was run: as §3

Clc1cc(Cl)c(OCC#CI)cc1Cl [Haloprogin]
Conditions	IC50 (cell viability) [µM]
BV-173 [11]	1.58
HEL [2]	3.48
HL-60 [7]	> 10
K-562 [8]	5.06
KCL-22 [3]	1.71
KG-1 [1]	3.26
KU-812	2.03
LAMA-84 [5]	5.49
ML-2 [4]	3.25
MOLM-13 [9]	3.95
MV4-11 [6]	2.52
Mono-Mac-6	2.84
NOMO-1	3.09
SHI-1 [10]	> 10
THP-1	1.69

Conditions	area under dose-response curve, co-treatment: AZD3965 100 nM	area under dose-response curve, co-treatment: DMSO vehicle	area under dose-response curve, co-treatment: GSK2194069 100 nM	area under dose-response curve, co-treatment: pictilisib 100 nM	cell viability, 1 nM [%]	cell viability, 10 nM [%]	cell viability, 100 nM [%]	cell viability, 1000 nM [%]	cell viability, 10000 nM [%]
BV-173 [22]	–	–	–	–	120	93	104	71.5	0.185
HEL [13]	–	–	–	–	103	101	106	106	0.615
HL-60 [18]	–	–	–	–	92.2	109	108	109	51.4
HL-60 [23]	0.125	0.032	< 0.0301	0.0952	–	–	–	–	–
K-562 [19]	–	–	–	–	93.8	91.4	92.6	95.6	18.1
KCL-22 [14]	–	–	–	–	95.9	97.1	104	73.9	2.51
KG-1 [12]	–	–	–	–	108	101	101	101	0.829
LAMA-84 [16]	–	–	–	–	94.4	94.6	99.9	101	21.7
ML-2 [15]	–	–	–	–	106	108	113	102	-0.066
MOLM-13 [20]	–	–	–	–	100	113	112	108	6.57
MV4-11 [17]	–	–	–	–	109	98	101	89	0.356
SHI-1 [21]	–	–	–	–	97.8	112	107	99.5	62.6

cell viability [%], HL-60 [24]
Conditions	0.001 µM	0.01 µM	0.1 µM	1 µM	10 µM
co-treatment: AZD3965 100 nM	103	102	104	99.73	3.01
co-treatment: DMSO vehicle	102	103	106	104	57.3
co-treatment: GSK2194069 100 nM	95.5	107	96.4	105	71.4
co-treatment: pictilisib 100 nM	92.6	96.3	107	105	14.4

O=c1[nH]c(=O)n([C@H]2C[C@H](O)[C@@H](CO)O2)cc1I [Idoxuridine]
Conditions	IC50 (cell viability) [µM]
BV-173 [11]	0.464
HEL [2]	1.47
HL-60 [7]	> 10
K-562 [8]	4.34
KCL-22 [3]	0.755
KG-1 [1]	> 10
KU-812	> 10
LAMA-84 [5]	5.59
ML-2 [4]	2.51
MOLM-13 [9]	4.76
MV4-11 [6]	1.63
Mono-Mac-6	6.63
NOMO-1	> 10
SHI-1 [10]	> 10
THP-1	> 10

Conditions	area under dose-response curve, co-treatment: AZD3965 100 nM	area under dose-response curve, co-treatment: DMSO vehicle	area under dose-response curve, co-treatment: GSK2194069 100 nM	area under dose-response curve, co-treatment: pictilisib 100 nM	cell viability, 1 nM [%]	cell viability, 10 nM [%]	cell viability, 100 nM [%]	cell viability, 1000 nM [%]	cell viability, 10000 nM [%]
BV-173 [22]	–	–	–	–	102	86.7	97.6	15.6	1.22
HEL [13]	–	–	–	–	93.8	90.5	92	59.7	36.1
HL-60 [18]	–	–	–	–	113	105	102	95	84
HL-60 [23]	< 0.0301	< 0.0301	< 0.0301	< 0.0301	–	–	–	–	–
K-562 [19]	–	–	–	–	85.6	102	99.3	73.3	47.1
KCL-22 [14]	–	–	–	–	103	96.7	101	48.9	26.3
KG-1 [12]	–	–	–	–	101	108	105	84.1	63.3
LAMA-84 [16]	–	–	–	–	102	88.8	103	87	47.1
ML-2 [15]	–	–	–	–	98.1	92.4	105	83.4	28.2
MOLM-13 [20]	–	–	–	–	116	91.2	94.1	83.5	32.1
MV4-11 [17]	–	–	–	–	103	89.2	92.6	63.6	21.7
SHI-1 [21]	–	–	–	–	102	99.6	99.3	95.2	60.3

cell viability [%], HL-60 [24]
Conditions	0.001 µM	0.01 µM	0.1 µM	1 µM	10 µM
co-treatment: AZD3965 100 nM	94.7	102	98.5	97.9	102
co-treatment: DMSO vehicle	99.9	100	99.7	94.9	103
co-treatment: GSK2194069 100 nM	95.3	100	101	98.6	86.4
co-treatment: pictilisib 100 nM	84.1	95.8	97.3	93.8	90
